Reference: patent publication US20190175551A1, “MEDICINE FOR TREATING RENAL DISEASE” (Daiichi Sankyo Company, Limited, priority 2016, published 2019)

Assays:
[1] = tested on: DOCA/sodium chloride-loaded hypertension model; assay: Ameliorative effect on a renal disorder in the DOCA/sodium chloride-loaded hypertension model (kidney histopathology); type: in vivo, male WKY rats; details: for Glomerulosclerosis score / Tubular disorder score, Cortical side / Tubular disorder score, Medullary side: 15 weeks old, score 0 to 4, mean±standard error, n=6
Method: Deoxycorticosterone acetate (DOCA)/sodium chloride-loaded hypertension model was prepared by the following procedure. 6 Week-old male WKY rats (WKY/Izm, SPF grade, produced by Funabashi Farm Co., Ltd.) were subjected to unilateral nephrectomy, diet containing 4% sodium chloride (4% NaCl-containing FR-2, manufactured by Funabashi Farm Co., Ltd.) was given from 7 weeks old by free feeding, and DOCA was administered subcutaneously once a week. DOCA was suspended in a 0.5% carboxymethylcellulose solution (20 mg/mL) and administered in an amount corresponding to 1 mL/kg. The group to which DOCA was not administered was designated as DOCA non-administration group and the group to which DOCA was administered was designated as DOCA administration group.
At 11 weeks old, some of the animals in the DOCA non-administration group were dissected and the other animals in the DOCA non-administration group were designated as normal group (Group 1). At the same time, some of the animals in the DOCA administration group were also dissected, and the others of the DOCA administration group were divided into the following groups (Groups 2 to 4).
Group 1: normal group, n=6 animals
Group 2; control group, n=6 animals
Group 3; compound (Ia) administration group [compound (Ia) 3 mg/kg], n=6 animals
Group 4: DOCA administration interruption+compound (Ia) administration group [compound (Ia) 3 mg/kg], n=6 animals
The dosing schedule of test drugs for each group after 11 weeks is as follows.
To Group 1, oral administration of a 0.5% methylcellulose solution was continued for 4 weeks. To Group 2, oral administration of 0.5% methylcellulose solution and subcutaneous administration (once a week) of DOCA were continued for 4 weeks. To Group 3, oral administration of compound (Ia) suspended in 0.5% methylcellulose solution (2 mL/kg) and subcutaneous administration (once a week) of DOCA were continued for 4 weeks.
To Group 4, only oral administration of compound (Ia) suspended in 0.5% methylcellulose solution (2 mL/kg) was continued for 4 weeks.
At the end of 4 weeks of administration of the test drug or the like (at the age of 15 weeks old), all animals were dissected.
At 7, 11, 13 and 15 weeks old, 24-hour urine collections were conducted using metabolic cages (2100-R, Watanabe Isolator Systems Co., Ltd.). Daily urinary protein excretion was calculated from the urine protein concentration (measured by BiOLiS 24i premium [Tokyo Boeki Medisys Inc.]) and urine volume.
At the time of dissection at 11 and 15 weeks old, the kidneys were isolated and weighed, and the kidney weight per body weight was calculated.
Furthermore, histopathological sections were prepared from a part of the isolated kidneys, and histopathological evaluation (scoring of glomerulosclerosis and tubular disorder) was conducted. For glomerulosclerosis, 30 glomeruli were selected at random for each sample, and the degree of glomerulosclerosis of each sample was quantified on the basis of 5 stages (0 to 4) to determine an average value of 30 values, which was used as a score of the sample (Uehara Y, et al., Hypertens. Res. 1992; 15, pp 17-26). For tubular disorder, for each of the cortical and medullary sides, 10 fields of view were selected for each sample, the degree of tubular disorder was quantified on the basis of 5 stages (0 to 4) to determine the average value of values for each 10 fields of view, which was used as a score of the sample (Uehara Y, et al., Hypertens. Res. 1992; 15, pp 17-26). Results are shown in Table 3 (each numerical value in the table represents the mean±standard error).

[2] = tested on: patients with type 2 diabetes mellitus having albumin urine; assay: Phase II randomized, placebo controlled, double-blind clinical study of compound (Ia) (Example 3); type: in vivo, human; details: for Reduction rate of UACR (geometric mean) from baseline at the end of dosing / Remission rate of UACR: 12 weeks; for Remission rate of UACR: UACR <30 mg/g Cr at 11 and 12 weeks and decreased by 30% or more
Method: A clinical study targeted to patients with type 2 diabetes mellitus having albumin urine was conducted to evaluate the efficacy and safety of the like of compound
(Ia). This study is a Phase II randomized, placebo controlled, double-blind comparison study. Each of the patients was subjected to a washout period of 4 to 12 weeks followed by treatment comprising administrating placebo or compound (Ia) (0.625 mg, 1.25 mg, 2.5 mg, 5 mg) once a day over a treatment period of 12 weeks.
365 Patients in Japan who met the following criteria entered this study, and an efficacy and safety analysis set included 358 cases.
1. The patient is with type 2 diabetes mellitus; 2. The patient is 20 years old or more at the time of consent; 3. Urine albumin/creatinine ratio (UACR) is 45 mg/g Cr or more and less than 300 mg/g Cr; 4. Estimated glomerular filtration rate calculated with serum creatinine (eGFRcreat) is 30 mL/min/1.73 m^2 or more; and 5. The patient has been subjected to treatment with an angiotensin-converting enzyme inhibitor or an angiotensin II receptor antagonist (and optionally a calcium antagonist) since at least 3 months before the start of treatment.
The patient was followed up for approximately 6 weeks after the end of dosing, and evaluated for change in UACR from baseline, remission rate of UACR and numerical value of eGFR as well as safety.
Remission rate of UACR (%)=(number of subjects in remission÷number of all subjects to be analyzed)×100

[3] = Group 3: 3 mg/kg oral for 4 weeks with continued DOCA
[4] = Group 4: DOCA administration interruption + 3 mg/kg oral for 4 weeks

With `Cc1c(C(=O)Nc2ccc(S(C)(=O)=O)cc2)cn(CCO)c1-c1ccccc1C(F)(F)F` (atropisomer, axis not shown) [compound (Ia), (S)-1-(2-hydroxyethyl)-4-methyl-N-[4-(methylsulfonyl)phenyl]-5-[2-(trifluoromethyl)phenyl]-1H-pyrrole-3-carboxamide] the “Effect on renal disorders (proteinuria, renal hypertrophy, glomerulosclerosis and tubular disorder)” value ([1]; 3 mg/kg oral for 4 weeks, disease model animals) was “excellent ameliorative effect”, the Glomerulosclerosis score [1, 3] was 0.29 ± 0.05 and the “Tubular disorder score, Cortical side” value [1, 3] was 1.02 ± 0.07. For the same compound, the “Tubular disorder score, Medullary side” value [1, 3] was 1.73 ± 0.04, the “Effect on renal disorders versus normal group” value [1, 4] was “ameliorated almost to the normal group level” and the Glomerulosclerosis score [1, 4] was 0.20 ± 0.04. For the same compound, the “Tubular disorder score, Cortical side” value [1, 4] was 0.67 ± 0.06, the “Tubular disorder score, Medullary side” value [1, 4] was 1.42 ± 0.11 and the “Reduction rate of UACR (geometric mean) from baseline at the end of dosing” value (“Reduction rate of UACR (geometric mean)” below) ([2]; 0.625 mg once a day) was 21%. The “Remission rate of UACR” value ([2]; 0.625 mg once a day) was 7.5%, the “Reduction rate of UACR (geometric mean)” value ([2]; 1.25 mg once a day) was 37% and the “Remission rate of UACR” value ([2]; 1.25 mg once a day) was 12.3%. For the same compound, the “Reduction rate of UACR (geometric mean)” value ([2]; 2.5 mg once a day) was 50%, the “Remission rate of UACR” value ([2]; 2.5 mg once a day) was 21.2% and the “Reduction rate of UACR (geometric mean)” value ([2]; 5 mg once a day) was 56%. For the same compound, the “Remission rate of UACR” value ([2]; 5 mg once a day) was 21.1% and the “Therapeutic effect (UACR reducing effect and increase in remission rate)” value ([2]; patients without sufficient effect on ACE inhibitor or angiotensin II receptor antagonist (optionally calcium antagonist)) was “excellent therapeutic effect”.
